# Laboratory results from publication PMC11206245 (Pharmaceuticals, 2024).
# What was measured:
# healthy dogs [1] = assay: Study B: safety and toxicity, side and adverse effects, plasma biochemistry; type: in vivo
# Protocol: Study B involved 9 healthy dogs (8 females and 1 male), including the 4 females from Study A after wash-out and upon confirmation of regular laboratory evaluations. […] Tolerability evaluations were performed via clinical examinations and blood sampling for laboratory evaluation after each treatment. For toxicity assessments, 4, 6, and 8 h after the final administration, the animals were euthanized for tissue collection and histopathological evaluation.
# Hemograms were performed following blood collection.
# healthy dogs [2] = assay: Study A dose-escalation protocol: tolerability, side and adverse effects; conditions: for Animals with increases in AST in plasma: reversible
# Text: Control animals were the same dogs that, prior to treatment, received an intravenous injection of the placebo solution. After that, samples were collected for hematological and biochemical analyses, as described in Section 4.2, “Animal Selection and Care Procedures”.
# Blood samples were collected for hematological (hemogram) and biochemical analyses, as described in Section 4.2, “Animal Selection and Care Procedures”. This study utilized a 6-step dose-escalation design for the treated dogs. […] Wash-out periods, ranging from 7 to 10 days, were observed between each dosage step. […] Blood samples were collected at various times, as specified in Section 4.4.1, “Peripheral Blood Sample Collection”. […] Peripheral blood samples for hematological and biochemical analyses were collected on days 2, 4, 7, and 10 [105].
# Two separate clinical reports were used to document data obtained from clinical evaluations. A general clinical description was used to note the following information daily: whether the animal was alert, prostrate, depressed, apathetic or aggressive, drinking water, and eating food normally, as well as feces and urine evaluations and the presence of vomit. Every two days, we noted the following parameters: body temperature (°C, measured using a rectal thermometer), heart rate (beats/minute), respiratory rate (cycles/minute), external mucous membrane coloration (conjunctiva and oral), hydration (skin elasticity), superficial lymph node enlargement (submandibular and popliteal), stool consistency, presence of lesions or secretions in the eyes, presence of nasal secretion (quantity and type), coat status, presence of skin lesions and ectoparasites, temperament, presence of claudication, and coordination and balance. Hemograms were performed following blood collection. The following biochemical analyses were performed: total proteins, albumin (A), globulins (Gs), A/G ratio, total cholesterol, bilirubin, renal profile (urea and creatinine), and hepatic enzymatic profiles (ALP, ALT, AST, AF, and GGT).
# [3] = Study B, third day, out of nine dogs
# [4] = Study A, healthy dogs n = 4, single IV dose 50 mg/m^2
# [5] = Study A, healthy dogs n = 4, single IV dose 100 mg/m^2
# [6] = Study A, healthy dogs n = 4, single IV dose 150 mg/m^2
# [7] = Study A, healthy dogs n = 4, single IV dose 200 mg/m^2
# [8] = Study A, healthy dogs n = 4, single IV dose 250 mg/m^2
smiles,measurement,setting,value
"C=CCNC1=C2C[C@@H](C)C[C@H](OC)[C@H](O)[C@@H](C)/C=C(\C)[C@H](OC(N)=O)[C@@H](OC)/C=C\C=C(/C)C(=O)NC(=CC1=O)C2=O [17-AAG, 17-(allylamino)-17-demethoxygeldanamycin]",Animals with elevated transaminase levels persisting,"healthy dogs [1]; Study B, by the fourth day",only one animal
same,Animals with bloody diarrhea,"healthy dogs [1]; Study B, fourth day",one animal
same,Animals with pale feces,"healthy dogs [1]; Study B, fourth day",seven out of nine
same,Dogs with elevated levels of ALT and AST,"healthy dogs [1]; Study B, multiple doses of 150 mg/m^2, three out of nine",33%
same,Animals with pasty feces,"healthy dogs [1]; Study B, second day after administering the second dose",two out of nine
same,Animals with bloody diarrhea,healthy dogs [1]; [3],one
same,Animals with diarrhea with liquid feces,healthy dogs [1]; [3],three
same,Animals with pasty feces,healthy dogs [1]; [3],two
same,"Dogs presenting elevated levels of ALT, AST and GGT","healthy dogs [1]; Study B, three IV doses of 150 mg/m^2",3/9
same,Animals with skin reaction with temporarily erupted hairs,"healthy dogs [1]; dog, in vivo",only one animal
same,Animals presenting adverse reactions: ALT,"healthy dogs [1]; dog, in vivo, iv",3 (33%) n (%)
same,Animals presenting adverse reactions: AST,"healthy dogs [1]; dog, in vivo, iv",3 (33%) n (%)
same,Animals presenting adverse reactions: bloody diarrhea,"healthy dogs [1]; dog, in vivo, iv",1 (11%) n (%)
same,Animals presenting adverse reactions: diarrhea (liquid feces),"healthy dogs [1]; dog, in vivo, iv",3 (33%) n (%)
same,Animals presenting adverse reactions: erythema,"healthy dogs [1]; dog, in vivo, iv",0 n (%)
same,Animals presenting adverse reactions: hyperthermia,"healthy dogs [1]; dog, in vivo, iv",0 n (%)
same,Animals presenting adverse reactions: nausea,"healthy dogs [1]; dog, in vivo, iv",0 n (%)
same,Animals presenting adverse reactions: pasty feces,"healthy dogs [1]; dog, in vivo, iv",9 (100%) n (%)
same,Animals presenting adverse reactions: pruritus,"healthy dogs [1]; dog, in vivo, iv",0 n (%)
same,Animals presenting adverse reactions: vomit,"healthy dogs [1]; dog, in vivo, iv",0 n (%)
same,Dogs with bloody diarrhea,"healthy dogs [2]; Study A, 200 mg/m^2",75%
same,Dogs with bloody diarrhea,"healthy dogs [2]; Study A, 250 mg/m^2",100%
same,Animals presenting nausea during administration,"healthy dogs [2]; Study A, dogs, 200 mg/m^2",all four animals
same,Animals presenting nausea during administration,"healthy dogs [2]; Study A, dogs, 250 mg/m^2",all four animals
same,Animals with ALT alteration,healthy dogs [2]; [4],1 (25%) N (%)
same,Animals with AST alteration,healthy dogs [2]; [4],0 N (%)
same,Animals with bloody diarrhea,healthy dogs [2]; [4],0 N (%)
same,Animals with diarrhea (pasty feces),healthy dogs [2]; [4],0 N (%)
same,Animals with erythema,healthy dogs [2]; [4],0 N (%)
same,Animals with hyperthermia,healthy dogs [2]; [4],0 N (%)
same,Animals with nausea,healthy dogs [2]; [4],0 N (%)
same,Animals with pruritus,healthy dogs [2]; [4],0 N (%)
same,Animals with vomit,healthy dogs [2]; [4],0 N (%)
same,Animals with ALT alteration,healthy dogs [2]; [5],2 (50%) N (%)
same,Animals with AST alteration,healthy dogs [2]; [5],2 (50%) N (%)
same,Animals with bloody diarrhea,healthy dogs [2]; [5],0 N (%)
same,Animals with diarrhea (pasty feces),healthy dogs [2]; [5],1 (25%) N (%)
same,Animals with erythema,healthy dogs [2]; [5],0 N (%)
same,Animals with hyperthermia,healthy dogs [2]; [5],0 N (%)
same,Animals with nausea,healthy dogs [2]; [5],0 N (%)
same,Animals with pruritus,healthy dogs [2]; [5],0 N (%)
same,Animals with vomit,healthy dogs [2]; [5],0 N (%)
same,Animals with ALT alteration,healthy dogs [2]; [6],3 (75%) N (%)
same,Animals with AST alteration,healthy dogs [2]; [6],2 (50%) N (%)
same,Animals with bloody diarrhea,healthy dogs [2]; [6],0 N (%)
same,Animals with diarrhea (pasty feces),healthy dogs [2]; [6],1 (25%) N (%)
same,Animals with erythema,healthy dogs [2]; [6],1 (25%) N (%)
same,Animals with hyperthermia,healthy dogs [2]; [6],1 (25%) N (%)
same,Animals with nausea,healthy dogs [2]; [6],0 N (%)
same,Animals with pruritus,healthy dogs [2]; [6],1 (25%) N (%)
same,Animals with vomit,healthy dogs [2]; [6],0 N (%)
same,Animals with ALT alteration,healthy dogs [2]; [7],3 (75%) N (%)
same,Animals with AST alteration,healthy dogs [2]; [7],4 (100%) N (%)
same,Animals with bloody diarrhea,healthy dogs [2]; [7],3 (75%) N (%)
same,Animals with diarrhea (pasty feces),healthy dogs [2]; [7],1 (25%) N (%)
same,Animals with erythema,healthy dogs [2]; [7],2 (50%) N (%)
same,Animals with hyperthermia,healthy dogs [2]; [7],0 N (%)
same,Animals with nausea,healthy dogs [2]; [7],4 (100%) N (%)
same,Animals with pruritus,healthy dogs [2]; [7],3 (75%) N (%)
same,Animals with vomit,healthy dogs [2]; [7],1 (25%) N (%)
same,Animals with ALT alteration,healthy dogs [2]; [8],4 (100%) N (%)
same,Animals with AST alteration,healthy dogs [2]; [8],4 (100%) N (%)
same,Animals with bloody diarrhea,healthy dogs [2]; [8],4 (100%) N (%)
same,Animals with diarrhea (pasty feces),healthy dogs [2]; [8],1 (25%) N (%)
same,Animals with erythema,healthy dogs [2]; [8],4 (100%) N (%)
same,Animals with hyperthermia,healthy dogs [2]; [8],1 (25%) N (%)
same,Animals with nausea,healthy dogs [2]; [8],4 (100%) N (%)
same,Animals with pruritus,healthy dogs [2]; [8],4 (100%) N (%)
same,Animals with vomit,healthy dogs [2]; [8],1 (25%) N (%)
same,Animals with increases in AST in plasma,"healthy dogs [2]; dogs, 100 mg/m^2",50%
same,Animals with increases in AST in plasma,"healthy dogs [2]; dogs, 150 mg/m^2",50%
same,Animals with increases in AST in plasma,"healthy dogs [2]; dogs, 200 mg/m^2",100%
same,Animals with increases in AST in plasma,"healthy dogs [2]; dogs, 250 mg/m^2",100%
same,maximum tolerable dose,"healthy dogs [2]; dogs, Study A, IV",150 mg/m^2
